Numbering of substitutions follows the chain as printed.

What all share (assay type): binding
Experiment [1] has as its target T1, TTN5 (TITAN 5) (Arabidopsis thaliana, UniProt Q9ZPX1, Q70L).
T1 construct: gene ARL2
T1 sequence (Q9ZPX1 1-185 Q70L limits assumed): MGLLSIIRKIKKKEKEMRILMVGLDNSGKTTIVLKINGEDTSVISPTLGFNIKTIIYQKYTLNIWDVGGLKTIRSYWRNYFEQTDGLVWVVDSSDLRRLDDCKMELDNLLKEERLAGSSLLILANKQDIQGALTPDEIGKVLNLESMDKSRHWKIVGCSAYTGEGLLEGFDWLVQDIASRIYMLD
Kind of experiment: stopped-flow fluorimetry, koff/kon.

Experiment [2] addresses T2, TTN5 (TITAN 5) (Arabidopsis thaliana, UniProt Q9ZPX1).
T2 construct: gene ARL2
T2 sequence (Q9ZPX1 1-185 limits assumed): T1 sequence (Q9ZPX1 1-185 Q70L limits assumed) with L70Q
Kind of experiment: stopped-flow fluorimetry, koff/kon.

Experiment [3] addresses T3, TTN5 (TITAN 5) (Arabidopsis thaliana, UniProt Q9ZPX1, T30N).
T3 construct: gene ARL2
T3 sequence (Q9ZPX1 1-185 T30N limits assumed): T1 sequence (Q9ZPX1 1-185 Q70L limits assumed) with T30N, L70Q
Kind of experiment: stopped-flow fluorimetry, koff/kon.

Experiment [4] has as its target T2, TTN5 (TITAN 5). Kind of experiment: pull-down of GST-TTN5, bound nucleotide by HPLC. The note with it: GST fusion; excess free GppNHp; single experiment.

`CNc1ccccc1C(=O)O[C@H]1C[C@H](n2cnc3c(=O)[nH]c(N)nc32)O[C@@H]1COP(=O)(O)OP(=O)(O)O` [mdGDP, 2-deoxy-3-O-N-methylanthraniloyl GDP]: the Kd was 61 nM at TTN5 (TITAN 5) [1], 267 nM on TTN5 (TITAN 5) [2] and 3090 nM at TTN5 (TITAN 5) [3].

Consider `Nc1nc2c(ncn2[C@@H]2O[C@H](COP(=O)(O)OP(=O)(O)NP(=O)(O)O)[C@@H](O)[C@H]2O)c(=O)[nH]1` [GppNHp], for which the “pull-down of GST-TTN5, bound nucleotide by HPLC” value on TTN5 (TITAN 5) [4] is given as “Isolated GST–TTN5 bound to increasing amounts of GppNHp”.

For orientation: Kd means the equilibrium constant for the complex coming apart. Read a high Kd as a looser complex.

The values above are taken from PMC11361645, “Characterization of the small Arabidopsis thaliana GTPase and ADP-ribosylation factor-like 2 protein TITAN 5” (Journal of Cell Science, 2024).
